Assay results from PubChem BioAssay (NCI).
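Five concentrations, 48 hours, 96-well plates. GI50: concentration for 50% inhibition of growth. At the TGI there is no net growth.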

Legend:
Assay in all cases: NCI-60 cell line screen, 48 h
[1] = tested on: HL-60(TB) leukemia
[2] = tested on: KM12 colon
[3] = tested on: M14 melanoma
[4] = tested on: SNB-75 CNS
[5] = tested on: SW-620 colon
[6] = tested on: T-47D breast
[7] = tested on: U251 CNS
[8] = tested on: UO-31 renal

## Cc1ccc(S(=O)(=O)NC(=O)Nc2ncn[nH]2)cc1
[1]
  TGI: > 100 µM
[2]
  TGI: > 100 µM
[3]
  TGI: > 100 µM
[4]
  TGI: > 100 µM
[5]
  TGI: > 100 µM
[6]
  TGI: > 100 µM
[7]
  TGI: > 100 µM
[8]
  TGI: > 100 µM

## CCCCCCCCCCCCNCCCc1ccccc1
[1]
  GI50: 1.89 µM
  TGI: 3.73 µM
[2]
  GI50: 1.75 µM
  TGI: 3.13 µM
[3]
  GI50: 1.76 µM
  TGI: 3.25 µM
[4]
  GI50: 1.43 µM
  TGI: 2.89 µM
[5]
  GI50: 1.64 µM
  TGI: 3.28 µM
[6]
  GI50: 1.78 µM
  TGI: 3.37 µM
[7]
  GI50: 1.53 µM
  TGI: 2.86 µM
[8]
  GI50: 1.86 µM
  TGI: 4.35 µM

## CC(=O)OC1CCC2(C)C(=CCC3C2CCC2(C)C3CC3OC4(CCC(C)CN4)C(C)C32)C1 (stereo unspecified)
[1]
  TGI: > 100 µM
[2]
  TGI: > 100 µM
[3]
  TGI: > 100 µM
[4]
  TGI: > 100 µM
[5]
  TGI: > 100 µM
[6]
  TGI: > 100 µM
[7]
  TGI: > 100 µM
[8]
  TGI: > 100 µM

## CCOC(=O)CCC(NC(=O)c1ccc(Oc2nc3cc(N)cc(N)c3nc2-c2ccccc2)cc1)C(=O)OCC (stereo unspecified)
[1]
  GI50: 31.5 µM
  TGI: 95 µM
[2]
  GI50: 27.4 µM
  TGI: > 100 µM
[3]
  GI50: 40 µM
  TGI: > 100 µM
[5]
  GI50: 29.5 µM
  TGI: > 100 µM
[6]
  GI50: 24.6 µM
  TGI: 59.7 µM
[7]
  GI50: > 100 µM
  TGI: > 100 µM
[8]
  GI50: 48.7 µM
  TGI: > 100 µM

## O=C1CC[C@@H]2[C@H]3CCC(=O)c4c3c(c3cccc(O)c3c4O)O[C@@]23C(=O)c2cccc(O)c2C(O)=C13
[1]
  GI50: > 100 µM
  TGI: > 100 µM
[2]
  GI50: > 100 µM
  TGI: > 100 µM
[4]
  GI50: > 100 µM
  TGI: > 100 µM
[5]
  GI50: > 100 µM
  TGI: > 100 µM
[7]
  GI50: > 100 µM
  TGI: > 100 µM
[8]
  GI50: > 100 µM
  TGI: > 100 µM

## CC(=O)OC1C(C)OC(Oc2c(-c3ccc(O)cc3)oc3cc(O)cc(O)c3c2=O)C(O)C1OC(C)=O (stereo unspecified)
[1]
  GI50: 23.9 µM
  TGI: 61.3 µM
[2]
  GI50: 29.4 µM
  TGI: > 83.8 µM
[3]
  GI50: 33.5 µM
  TGI: > 100 µM
[4]
  GI50: 27.5 µM
  TGI: > 93.9 µM
[5]
  GI50: 35.8 µM
  TGI: > 100 µM
[6]
  GI50: 23.4 µM
  TGI: 68.6 µM
[7]
  GI50: 32.1 µM
  TGI: > 100 µM
[8]
  GI50: 39.3 µM
  TGI: > 100 µM

## CC(C)OC(=O)NNc1c(Cl)cc(Cl)cc1Cl
[1]
  TGI: > 100 µM
[2]
  TGI: > 100 µM
[3]
  TGI: > 100 µM
[4]
  TGI: > 100 µM
[5]
  TGI: > 100 µM
[6]
  TGI: > 100 µM
[7]
  TGI: > 100 µM
[8]
  TGI: > 100 µM

## CCN(CC)CCNc1ccc2nc(C)n3c4ccc(OC)cc4c(=O)c1c23
[1]
  TGI: 2.96 µM
[2]
  TGI: 14.6 µM
[3]
  TGI: 24.1 µM
[4]
  TGI: 19 µM
[5]
  TGI: 9.27 µM
[6]
  TGI: 33.8 µM
[7]
  TGI: 20.6 µM
[8]
  TGI: 16.3 µM

## CCn1cnc(C[C@H](NC(=O)[C@@H](NC(=O)Nc2cc(C(F)(F)F)cc(C(F)(F)F)c2)C(C)(C)C)C(=O)OC)c1
[1]
  GI50: > 10 µM
  TGI: > 10 µM
[2]
  GI50: > 10 µM
  TGI: > 10 µM
[3]
  GI50: > 10 µM
  TGI: > 10 µM
[4]
  GI50: > 10 µM
  TGI: > 10 µM
[5]
  GI50: > 10 µM
  TGI: > 10 µM
[6]
  GI50: > 10 µM
  TGI: > 10 µM
[7]
  GI50: > 10 µM
  TGI: > 10 µM
[8]
  GI50: > 10 µM
  TGI: > 10 µM
